Each structure is given as a SMILES string.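 Results reflect a 48-hour exposure of cells in 96-well plates to compound at five concentrations. GI50 = concentration required for 50% inhibition of growth.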 Active and inactive are the calls of the source. No stated cut-off is given here; in the data, active = GI50 up to about 1.1 µM and inactive = higher.

Test systems include SNB-75; U-251; OVCAR-4; A549; UO-31; SW-620; NCI-H460; HCT-116; COLO 205; SK-MEL-5; SF-539; M14; A498; HCT-15; SK-MEL-2; RPMI-8226; 786-0; OVCAR-5; SR.
Common to all, as to test: NCI-60 cell line screen, 48 h

`O=C1/C(=C/c2cc(O)c(O)c(O)c2)Oc2cc(O)cc(OC3OC(CO)C(O)C(O)C3O)c21` (centres undefined): the GI50 with SNB-75 is > 100 µM (inactive); with U-251 it was > 10 µM (inactive); with OVCAR-4 it was 2.06 µM (inactive); in the assay on A549, 32.4 µM (inactive); with UO-31 it was 32.4 µM (inactive); with SW-620, 24.1 µM (inactive). In addition, the GI50 was 13.9 µM (inactive) with NCI-H460; 16.3 µM (inactive) with HCT-116; 22.2 µM (inactive) in the assay on COLO 205; 13.3 µM (inactive) with SK-MEL-5; > 100 µM (inactive) in the assay on SF-539; 21.5 µM (inactive) in the assay with M14. Also, the GI50 is 23.9 µM (inactive) in the assay on A498; 22.4 µM with HCT-15; 16.2 µM (inactive) with SK-MEL-2; 20.2 µM (inactive) in the assay with RPMI-8226; 27.9 µM (inactive) in the assay with 786-0.

Consider `C=CCc1cc(-c2cc(CC=C)c(O)c(CNCCCl)c2)cc(CNCCCl)c1O`, for which the GI50 in the assay with SNB-75 was 12.3 µM (inactive); with U-251, 16.6 µM (inactive); in the assay on OVCAR-4, 22.9 µM (inactive); with A549, 24.3 µM (inactive); with UO-31, 14.5 µM (inactive); with SW-620, 20.8 µM (inactive). The GI50 was 16.8 µM (inactive) in the assay with NCI-H460; 19.4 µM (inactive) in the assay on HCT-116; 17.9 µM (inactive) with COLO 205; 15.3 µM (inactive) in the assay with SK-MEL-5; 18 µM (inactive) in the assay with M14; 18.7 µM (inactive) with A498. Also, the GI50 with HCT-15 is 16.4 µM; with SK-MEL-2, 19.2 µM (inactive); with RPMI-8226, 21.4 µM (inactive); in the assay on 786-0, 28.6 µM (inactive).

As to `CC(=O)/C=C1\CC(=O)Nc2ccccc2N1`, the GI50 with OVCAR-5, in the assay on SNB-75, with U-251, with OVCAR-4, in the assay with A549 and with UO-31 was > 100 µM (inactive) throughout. In addition, the GI50 in the assay with SW-620, in the assay on NCI-H460, in the assay with HCT-116, in the assay with SK-MEL-5, with SF-539 and in the assay with M14 was > 100 µM (inactive) each time. Moreover, the GI50 with A498 was > 100 µM (inactive); in the assay with HCT-15, above 100 µM; with SK-MEL-2 it was > 100 µM (inactive); with RPMI-8226, > 100 µM (inactive); with 786-0, > 100 µM (inactive).

As for `CN1C(=O)C(=CN)C(=O)N(C)C1=O`, the GI50 in the assay with OVCAR-5, in the assay with SNB-75, in the assay on U-251, in the assay with OVCAR-4, in the assay on A549 and with UO-31 was > 100 µM (inactive) in each case. Further, the GI50 was > 100 µM (inactive) in the assay on SW-620; > 100 µM (inactive) in the assay with NCI-H460; > 100 µM (inactive) in the assay on SK-MEL-5; > 100 µM (inactive) in the assay on M14; > 100 µM (inactive) in the assay with SR; above 100 µM with HCT-15. Further, the GI50 in the assay with SK-MEL-2, with RPMI-8226 and in the assay on 786-0 was > 100 µM (inactive) in each case.

`O=C(CC1(O)C(=O)Nc2ccc(Br)cc21)c1ccc(Cl)cc1` (centres undefined): the GI50 in the assay on OVCAR-5 was > 100 µM (inactive); in the assay on SNB-75 it was 16.3 µM (inactive); with U-251, 27.6 µM (inactive); in the assay with OVCAR-4 it was 69.7 µM (inactive); in the assay on A549, > 100 µM (inactive); in the assay on UO-31, > 100 µM (inactive). The GI50 is 43.2 µM (inactive) with SW-620; > 100 µM (inactive) in the assay on NCI-H460; 44.4 µM (inactive) with HCT-116; > 100 µM (inactive) in the assay with COLO 205; > 100 µM (inactive) in the assay on SK-MEL-5; 50.7 µM (inactive) in the assay with SF-539. The GI50 was 83.2 µM (inactive) in the assay with M14; > 100 µM (inactive) in the assay on A498; above 100 µM with HCT-15; > 100 µM (inactive) with SK-MEL-2; 42.3 µM (inactive) in the assay on RPMI-8226; 75.7 µM (inactive) with 786-0.

Consider `CCCc1cc(OC(=O)c2c(O)cc(OC)cc2CCC)cc(O)c1C(=O)O`, for which the GI50 in the assay on OVCAR-5 was 35 µM (inactive); in the assay on SNB-75, 27.5 µM (inactive); with U-251, 23.9 µM (inactive); with A549, 30.2 µM (inactive); with UO-31, 13 µM (inactive); in the assay on SW-620 it was 37.9 µM (inactive). In addition, the GI50 was 23.9 µM (inactive) in the assay on NCI-H460; 17.4 µM (inactive) with HCT-116; 26.4 µM (inactive) in the assay with COLO 205; 18 µM (inactive) in the assay with SF-539; 28.4 µM (inactive) in the assay on M14; 28.9 µM (inactive) in the assay on A498. In addition, the values for the GI50 with SK-MEL-2, in the assay on RPMI-8226 and with 786-0 were 20.5 µM (inactive), 24.2 µM (inactive) and 36 µM (inactive), respectively.

In the case of `Cc1ccc2c(c1)CNc1ccc(C)cc1CN2`, the GI50 in the assay with OVCAR-5 was > 100 µM (inactive); in the assay on SNB-75, 3.19 µM (inactive); in the assay with U-251, > 100 µM (inactive); in the assay with OVCAR-4, > 100 µM (inactive); with A549, > 100 µM (inactive); in the assay on UO-31, > 100 µM (inactive). The GI50 in the assay on SW-620 is > 100 µM (inactive); with NCI-H460 it was > 100 µM (inactive); in the assay with HCT-116, > 100 µM (inactive); in the assay with COLO 205, > 100 µM (inactive); in the assay with SK-MEL-5, 62.4 µM (inactive); with SF-539, > 100 µM (inactive). Besides, the GI50 was > 100 µM (inactive) in the assay on M14; > 100 µM (inactive) in the assay with SR; above 100 µM in the assay on HCT-15; > 100 µM (inactive) in the assay on SK-MEL-2; > 100 µM (inactive) with RPMI-8226; > 100 µM (inactive) in the assay with 786-0.

`O=[PH](O)c1cc2c3ccccc3ccc2c2ccccc12`: the GI50 with SNB-75, in the assay on U-251, in the assay with OVCAR-4, with A549, in the assay on SW-620 and in the assay on NCI-H460 was > 100 µM (inactive) each time. Besides, the GI50 with HCT-116, with COLO 205, in the assay on SK-MEL-5, in the assay with SF-539, in the assay on M14 and in the assay on RPMI-8226 was > 100 µM (inactive) each time. Also, the GI50 in the assay with 786-0 is > 100 µM (inactive).

Consider `NC(CCc1nc(-c2ccccc2)cs1)C(=O)O` (centres undefined), for which the GI50 was 59.6 µM (inactive) in the assay with SNB-75; > 100 µM (inactive) in the assay on U-251; > 100 µM (inactive) with A549; 75.2 µM (inactive) in the assay with UO-31; > 100 µM (inactive) with SW-620; > 100 µM (inactive) in the assay on NCI-H460. In addition, the GI50 in the assay on HCT-116, in the assay on COLO 205, in the assay on SK-MEL-5, in the assay on SF-539, in the assay on M14 and in the assay with A498 was > 100 µM (inactive) each time. The GI50 in the assay with HCT-15 was above 100 µM; in the assay with RPMI-8226, > 100 µM (inactive); in the assay on 786-0 it was 81.7 µM (inactive).
